In PubChem BioAssay (NCI):
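In this assay, cells in 96-well plates receive the compound at five concentrations for 48 hours. Endpoints are linearly interpolated between the surrounding concentrations. TGI denotes the concentration required for complete inhibition of growth.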

Columns and labels:
Assay in all cases: growth of human tumour cells (NCI), 48 h
[1] = system: CCRF-CEM leukemia
[2] = system: SF-539 CNS
[3] = system: MALME-3M melanoma
[4] = system: IGROV1 ovarian
[5] = system: U251 CNS
[6] = system: TK-10 renal
[7] = system: ACHN renal
[8] = system: SK-MEL-5 melanoma
[9] = system: SK-OV-3 ovarian
[10] = system: K-562 leukemia
[11] = system: UACC-62 melanoma
[12] = system: HOP-62 NSCLC
[13] = system: SW-620 colon
[14] = system: MOLT-4 leukemia
[15] = system: SF-268 CNS
[16] = system: 786-0 renal
[17] = system: EKVX NSCLC
[18] = system: M19-MEL melanoma
[19] = system: LOX IMVI melanoma
[20] = system: SNB-19 CNS
[21] = system: M14 melanoma
[22] = system: SN12C renal
[23] = system: HCT-116 colon
[24] = system: KM12 colon
[25] = system: DMS 114 small cell lung
[26] = system: A498 renal
[27] = system: OVCAR-4 ovarian
[28] = system: HCT-15 colon
[29] = system: COLO 205 colon
[30] = system: DLD-1 colon
[31] = system: SNB-78 CNS
[32] = system: RPMI-8226 leukemia
[33] = system: SNB-75 CNS
[34] = system: NCI-H460 lung
[35] = system: SK-MEL-28 melanoma
[36] = system: RXF 393 renal
[37] = system: OVCAR-8 ovarian
[38] = system: UO-31 renal
[39] = system: LXFL 529 NSCLC
[40] = system: A549 NSCLC
[41] = system: SF-295 CNS
[42] = system: HL-60(TB) leukemia
[43] = system: DMS 273 small cell lung
[44] = system: KM20L2 colon
[45] = system: HOP-18 NSCLC
[46] = system: SR leukemia
[47] = system: OVCAR-5 ovarian
[48] = system: UACC-257 melanoma
[49] = system: XF 498 CNS
[50] = system: HCC-2998 colon
[51] = system: HT29 colon
[52] = system: HOP-92 NSCLC
[53] = system: NCI-H23 lung
[54] = system: OVCAR-3 ovarian
[55] = system: CAKI-1 renal
[56] = system: NCI-H522 lung
[57] = system: SK-MEL-2 melanoma
[58] = system: NCI-H226 lung

Cc1ccccc1C(=O)Oc1ccc(OCc2ccccc2)cc1
TGI [1]: > 100 µM | TGI [2]: > 100 µM | TGI [3]: > 100 µM | TGI [4]: > 100 µM | TGI [5]: > 100 µM | TGI [6]: > 100 µM | TGI [7]: > 100 µM | TGI [8]: > 100 µM | TGI [9]: > 100 µM | TGI [10]: > 100 µM | TGI [11]: > 100 µM | TGI [12]: > 100 µM | TGI [13]: > 100 µM | TGI [14]: > 100 µM | TGI [15]: > 100 µM | TGI [16]: > 100 µM | TGI [17]: > 100 µM | TGI [18]: > 100 µM | TGI [19]: > 100 µM | TGI [20]: > 100 µM | TGI [21]: > 100 µM | TGI [22]: > 100 µM | TGI [23]: > 100 µM | TGI [24]: > 100 µM | TGI [25]: > 100 µM | TGI [26]: > 100 µM | TGI [27]: > 100 µM | TGI [28]: > 100 µM | TGI [29]: > 100 µM | TGI [30]: > 100 µM | TGI [31]: > 100 µM | TGI [32]: > 100 µM | TGI [33]: > 100 µM | TGI [34]: > 100 µM | TGI [35]: > 100 µM | TGI [36]: > 100 µM | TGI [37]: > 100 µM | TGI [38]: > 100 µM | TGI [39]: > 100 µM | TGI [40]: > 100 µM | TGI [41]: > 100 µM | TGI [42]: > 100 µM | TGI [43]: > 100 µM | TGI [44]: > 100 µM | TGI [45]: > 100 µM | TGI [46]: 68 µM | TGI [47]: > 100 µM | TGI [48]: > 100 µM | TGI [49]: > 100 µM | TGI [50]: > 100 µM | TGI [51]: > 100 µM | TGI [52]: > 100 µM | TGI [53]: > 100 µM | TGI [54]: > 100 µM

CCCCn1c2ccccc2c2ccc3c(c21)C(=O)C=CC3=O
TGI [2]: > 100 µM | TGI [3]: > 100 µM | TGI [4]: > 100 µM | TGI [5]: > 100 µM | TGI [6]: > 100 µM | TGI [7]: > 100 µM | TGI [8]: > 100 µM | TGI [9]: > 100 µM | TGI [10]: > 100 µM | TGI [11]: > 100 µM | TGI [12]: > 100 µM | TGI [13]: > 100 µM | TGI [14]: > 100 µM | TGI [15]: > 100 µM | TGI [16]: > 100 µM | TGI [18]: 1.04 µM | TGI [55]: > 100 µM | TGI [56]: > 100 µM | TGI [19]: > 100 µM | TGI [20]: > 100 µM | TGI [21]: > 100 µM | TGI [22]: > 100 µM | TGI [23]: > 100 µM | TGI [24]: > 100 µM | TGI [57]: > 100 µM | TGI [25]: > 100 µM | TGI [26]: > 100 µM | TGI [27]: > 100 µM | TGI [28]: > 100 µM | TGI [29]: > 100 µM | TGI [30]: > 100 µM | TGI [31]: > 100 µM | TGI [32]: > 100 µM | TGI [33]: 0.638 µM | TGI [34]: > 100 µM | TGI [35]: > 100 µM | TGI [37]: > 100 µM | TGI [38]: > 100 µM | TGI [39]: > 100 µM | TGI [58]: > 100 µM | TGI [40]: > 100 µM | TGI [41]: > 100 µM | TGI [43]: > 100 µM | TGI [44]: > 100 µM | TGI [45]: > 100 µM | TGI [46]: > 100 µM | TGI [47]: > 100 µM | TGI [48]: > 100 µM | TGI [50]: > 100 µM | TGI [51]: 3.46 µM | TGI [52]: > 100 µM | TGI [53]: > 100 µM | TGI [54]: > 100 µM

O=C(NC1C2CC3CC(C2)CC1C3)/C(Cl)=C1/Sc2ccccc2NC1=O (stereo not drawn)
TGI [1]: > 100 µM | TGI [2]: > 100 µM | TGI [3]: > 100 µM | TGI [4]: > 100 µM | TGI [5]: > 100 µM | TGI [6]: > 100 µM | TGI [7]: > 100 µM | TGI [8]: > 100 µM | TGI [10]: > 100 µM | TGI [11]: > 100 µM | TGI [12]: > 100 µM | TGI [13]: > 100 µM | TGI [14]: > 100 µM | TGI [15]: > 100 µM | TGI [16]: > 100 µM | TGI [17]: > 100 µM | TGI [18]: > 100 µM | TGI [55]: > 100 µM | TGI [56]: > 100 µM | TGI [19]: > 100 µM | TGI [20]: > 100 µM | TGI [21]: > 100 µM | TGI [22]: > 100 µM | TGI [23]: > 100 µM | TGI [24]: > 100 µM | TGI [25]: > 100 µM | TGI [26]: > 100 µM | TGI [27]: > 100 µM | TGI [28]: > 100 µM | TGI [29]: > 100 µM | TGI [30]: > 100 µM | TGI [31]: > 100 µM | TGI [33]: > 100 µM | TGI [34]: > 100 µM | TGI [35]: > 100 µM | TGI [36]: > 100 µM | TGI [37]: > 100 µM | TGI [38]: > 100 µM | TGI [39]: > 100 µM | TGI [58]: > 100 µM | TGI [40]: > 100 µM | TGI [41]: > 100 µM | TGI [42]: > 100 µM | TGI [43]: > 100 µM | TGI [44]: > 100 µM | TGI [45]: > 100 µM | TGI [46]: > 100 µM | TGI [47]: > 100 µM | TGI [48]: > 100 µM | TGI [49]: > 100 µM | TGI [50]: > 100 µM | TGI [51]: > 100 µM | TGI [52]: > 100 µM | TGI [53]: > 100 µM | TGI [54]: > 100 µM

CC(NC(=O)C(=O)N/N=C1\C[C@@H](c2ccccc2)Nc2ccccc21)c1ccccc1 (stereo partly drawn)
TGI [2]: > 100 µM | TGI [3]: 99.6 µM | TGI [5]: > 100 µM | TGI [6]: > 100 µM | TGI [7]: > 100 µM | TGI [12]: > 100 µM | TGI [13]: > 100 µM | TGI [15]: > 100 µM | TGI [16]: > 100 µM | TGI [17]: > 100 µM | TGI [18]: > 100 µM | TGI [55]: > 100 µM | TGI [56]: > 100 µM | TGI [19]: > 100 µM | TGI [20]: > 100 µM | TGI [21]: > 100 µM | TGI [22]: > 100 µM | TGI [23]: > 100 µM | TGI [24]: > 100 µM | TGI [57]: > 100 µM | TGI [25]: > 100 µM | TGI [27]: > 100 µM | TGI [29]: > 100 µM | TGI [30]: > 100 µM | TGI [31]: > 100 µM | TGI [33]: > 100 µM | TGI [34]: > 100 µM | TGI [35]: > 100 µM | TGI [36]: > 100 µM | TGI [37]: > 100 µM | TGI [38]: > 100 µM | TGI [39]: > 100 µM | TGI [58]: > 100 µM | TGI [40]: > 100 µM | TGI [41]: > 100 µM | TGI [42]: > 100 µM | TGI [43]: > 100 µM | TGI [44]: > 100 µM | TGI [47]: > 100 µM | TGI [48]: > 100 µM | TGI [49]: > 100 µM | TGI [50]: > 100 µM | TGI [51]: > 100 µM | TGI [52]: > 100 µM | TGI [53]: > 100 µM | TGI [54]: > 100 µM
